Source: PMC7200681, “The calcitonin-like system is an ancient regulatory system of biomineralization” (Scientific Reports, 2020)
Bridge positions count the residues as written; N and C are the ends.

Assays:
mussel mantle cells = experiment: Calcium uptake by isolated mantle cells (calcein fluorescence); type: cell-based, Mytilus galloprovincialis; conditions: CALCIIa 10 μM, 4 hours, calcein 50 mM
Procedure: Figure 7 Effect of the mussel calcitonin-like peptide on (A) calcium (ppm) concentration in the mantle edge and (B) calcium uptake by mantle cells of the Mediterranean mussel. (A) The quantity of calcium (ppm) present in the mantle edge after mussel CALCIIa peptide incubation was measured using a Microwave Plasma-Atomic Emission Spectrometer (MP-AES, Agilent) at 393.366 nm. A standard curve for calcium was performed before analysing the samples. In vitro mantle assays with CALCIIa peptide and with ouabain and control (culture medium and mantle) were repeated on at least 3 independent occasions. […] An increase in cellular fluorescence represents an increase in calcium uptake. Fluorescence of the CALCIIa peptide stimulated cells was 1.9 times higher than the control. The average mantle cell size was 3–4 μm and fluorescent images were taken using a Leica DM IL microscope coupled to a Visicam HDMI 6 digital camera and photographs were analysed using ImageJ software (v. 1.52a) to calculate the fluorescence intensity and for image overlay. […]
Mantle cells were isolated from Mediterranean mussel mantle edge explants of the posterior region and were incubated with the CALCIIa peptide. […] Photographs were analysed for image overlay and to calculate fluorescence intensity (corrected total cell fluorescence, CTCF) using ImageJ software (v. 1.52a). […]

[1] = system: mussel CALCR-like (CALCRIa, CALCRIc, CALCRIIa, CALCRIIb and CALCRIIc); experiment: Calcium mobilization, initial single-concentration test on the mussel receptors; type: cell-based; conditions: 10 µM peptide; % of carbachol (100uM) response; single experiment with six replicates (Supplementary Figure 7B)
Procedure: Mammalian cell cultures and transfections followed the methodology described by[89],[90]. Mammalian HEK293 cells (ECACC, UK) were used and they were maintained in complete Dulbecco’s modified Eagle’s medium (DMEM, 4.5 g/l glucose, 110 mg/l sodium pyruvate and L-glutamine, SIGMA-ALDRICH, Spain) supplemented with 10% sterile foetal bovine serum (FBS), 0.1% penicillin: streptomycin antibiotic mix (10,000 U:10 mg/ml, Sigma) and 250 μg /ml sterile filtered 1:100 amphotericin B solution (SIGMA-ALDRICH) in a humid 5% CO2 incubator (HERAEUS, Portugal) at 37 °C. […] Cell recovery was monitored daily and the medium was changed every two days until no cell death was observed. […]
HEK293 cells stably expressing five mussel receptors (CALCRIa, CALCRIc, CALCRIIa, CALCRIIb and CALCRIIc) were stimulated with the two mussel peptides and the vertebrate (human and salmon) calcitonins. Receptor activation was assessed in vitro by measuring two intracellular signalling pathways: a) production of cAMP and b) mobilization of calcium (Ca^2+). The cellular response was initially assessed using 10 μM of each peptide. […]
Stable cell lines expressing the mussel receptors were transiently co-transfected with the mitochondrial targeted apo-aequorin protein cloned in pcDNA3.1. […] Peptide potency was determined as the total area under the activation curve. Data was calculated as a % of the highest response (100% activation). […]

Question: “H-CTWGGGMSDEMCSTVDIDEIQRSFQVIHDRNSP-NH2 (disulfide 1-12 (inferred)) [CALCIIa, Mediterranean mussel calcitonin-like mature peptide, 33 aa, synthesized with disulphide bond and C-terminal amidation]” was tested. Which “Increase in intensity of fluorescent calcium staining versus control mantle cells” value (mussel mantle cells; ImageJ CTCF) did it give?
Answer: 1.9 times

Question: What about the “Mean corrected total cell fluorescence (CTCF) of mantle cells” value (mussel mantle cells; control = 1405154) of the same substance?
Answer: 2654581

Question: And the “Stimulation of mussel CALCR-like, intracellular calcium (in words)” value [1]?
Answer: elicited a high response
